According to US4845123A, “Reduction in vivo of the inappropriate levels of endogenous and environmental-derived compounds by sustained-release inhibitors of β- g” (priority 1985, dated 1989):

Experiments:
[1] = test system: Organ DNA; assay: in vivo covalent binding of [14C]BP to organ DNA; parameters: species or system rat; conditions: for Covalent Binding Index (of BP), +DAGDL: DAGDL 1.5 mmol/kg 0.5 hours before [14C]BP; for inhibition at 1500 µmol/kg: Rattus norvegicus, DAGDL 1.5 mmol/kg
Method: Experimental rats were pretreated 0.5 hours earlier with one dose of 1.5 mmol/kg body weight of DAGDL which was administered by stomach tube as a suspension in 1.0 ml of sesame oil, while control rats received the vehicle only. The experimental and control group contained 2 rats each. Heart, kidney, liver, lung and mammary gland were removed under ether anesthesia 48 hours post-administration of BP. The DNA was isolated immediately and purified by chloroform phenol extraction of organ homogenates. In the case of mammary gland, the homogenate was treated with collagenase II. Following purification with ribonuclease A and protease K, the DNA concentration was estimated by U.V. absorption and the bound radioactivity was determined by radioassay in liquid scintillant.
In this experiment 50 day old female rats of the Sprague Dawley strain received 1.5 mmol/kg of DAGDL 0.5 hours before the intraperitoneal injection of 7.9 μmol/kg of [^14 C]BP. The DNA was extracted from the tissues and radioassayed by established procedures.

[2] = test system: bladder tumor; conditions: Miyakawa et al. 1973; DAGDL given at same time as carcinogen; cited from earlier work
[3] = test system: diabetes, rheumatoid arthritis, toxemia in pregnancy and bladder cancer; conditions: review of the medical literature; cited from earlier work
[4] = target: T1, serum β-glucuronidase (Rattus norvegicus, UniProt P06760); format: in vivo; conditions: 1.0 mmoles/kg i.g., assayed 1 hour after administration
T1 sequence (P06760 23-648): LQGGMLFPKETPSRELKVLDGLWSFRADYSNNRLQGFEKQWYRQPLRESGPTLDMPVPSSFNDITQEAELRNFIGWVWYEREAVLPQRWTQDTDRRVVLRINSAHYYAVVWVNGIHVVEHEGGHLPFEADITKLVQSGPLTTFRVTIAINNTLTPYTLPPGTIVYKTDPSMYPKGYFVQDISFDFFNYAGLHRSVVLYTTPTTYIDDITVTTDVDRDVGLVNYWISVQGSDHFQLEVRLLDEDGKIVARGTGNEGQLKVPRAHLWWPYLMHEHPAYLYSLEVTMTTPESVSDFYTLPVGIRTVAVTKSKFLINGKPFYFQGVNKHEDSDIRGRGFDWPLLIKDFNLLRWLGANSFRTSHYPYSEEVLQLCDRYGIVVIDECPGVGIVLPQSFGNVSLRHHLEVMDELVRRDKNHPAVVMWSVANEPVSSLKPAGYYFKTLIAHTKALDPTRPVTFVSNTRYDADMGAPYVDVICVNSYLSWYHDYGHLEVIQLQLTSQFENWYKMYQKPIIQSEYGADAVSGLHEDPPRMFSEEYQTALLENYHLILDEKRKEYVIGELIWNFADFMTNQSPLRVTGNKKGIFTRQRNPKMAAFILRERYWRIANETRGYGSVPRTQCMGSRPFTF

[5] = acute toxicity (weight loss) of N-methylnitrosourea; format: in vivo, rat; conditions: 21 days after treatment with MNU
[6] = test system: tumor initiation by 7,12-dimethylbenzanthracene (DMBA); conditions: Walaszek et al. 1984; cited from earlier work
[7] = test system: bladder tumors; conditions: Boyland et al. 1964 (GL); Katayama 1972 (DAGDL); cited from earlier work
[8] = test system: bladder tumor; conditions: Uemura et al. 1975; cited from earlier work
[9] = Furuno et al. 1975; cited from earlier work
[10] = test system: MNU-induced mammary tumors; assay: MNU-induced mammary carcinogenesis; format: in vivo, rat; conditions: MNU 40 mg/kg i.v., DAGDL 2 dose schedule; FIG. 10
Method: In this experiment, MNU (40 mg/kg) was administered to 50 day old Sprague Dawley female rats by i.v. injection. One half of the rats were co-administered DAGDL according to a 2 dose schedule.

[11] = target: T1, serum β-glucuronidase; conditions: Iida et al. 1965; cited from earlier work
[12] = test system: Morris Hepatoma 7777; assay: growth of transplanted Morris Hepatoma 7777; format: in vivo, rat; conditions: 2% CGT diet from one week before transplant, male Buffalo rats
Method: One group of male Buffalo rats was put on 2% CGT diet one week before the hepatoma transplant, while the other group of rats (controls) was kept on the regular chow diet. A minimum number of Morris Hepatoma 7777 cells consistent with tumor growth were innoculated subcutaneously in the left flank of all rats. Tumor diameters were measured at least twice weekly, and tumor volume was calculated.

[13] = rat, in vivo, ip
Method: TCDD was administered i.p. in a single dose of 40 μg/kg in sesame oil (0.5 ml) to 125 gm female Sprague Dawley rats. One group of 4 rats received 2 doses of CGT (4.5 mmole/kg) in sesame oil (1.0 ml) by stomach tube at 3 hours and a second dose at 0.5 hours before treatment with TCDD. A second, TCDD-treated group received oil only in place of the CGT. Control rats received oil only by stomach tube and i.p. injection.

CC(=O)O[C@@H]1C(=O)O[C@H]2[C@@H]1OC(=O)[C@@H]2OC(C)=O [DAGDL, 2,5-di-O-acetyl-D-glucaro-1,4;6,3-dilactone]
Covalent Binding Index (of BP), +DAGDL ([1]; Heart): 10
Covalent Binding Index (of BP), +DAGDL ([1]; Kidney): 12
Covalent Binding Index (of BP), +DAGDL ([1]; Liver): 9
Covalent Binding Index (of BP), +DAGDL ([1]; Lung): 8
Covalent Binding Index (of BP), +DAGDL ([1]; Mammary gland): 20
inhibition at 1500 µmol/kg ([1]; Heart): 44%
inhibition at 1500 µmol/kg ([1]; Kidney): 69%
inhibition at 1500 µmol/kg ([1]; Liver): 63%
inhibition at 1500 µmol/kg ([1]; Lung): 72%
inhibition at 1500 µmol/kg ([1]; Mammary gland): 47%
effect on bladder tumor incidence with 2-AAF [2]: did not disclose any significant difference
treatment of existing diseases [3]: unsuccessful
reduction of serum β-glucuronidase activity [4]: 50%
difference in toxicity-induced weight loss of DAGDL-treated and non-treated rats [5]: approximately 100 g
effect on initiation of tumor by DMBA [6]: inhibited
clinical effect in prevention of bladder tumors [7]: only a slight beneficial effect
inhibition of N-butyl-N-(4-butanol)nitrosamine-mediated bladder tumor [8]: unsuccessful
clearance of antibiotics which cause kidney damage [9]: inconclusive results
inhibition of mammary tumor development [10]: approx. 4 fold
potency as in vivo β-glucuronidase inhibitor [11]: potent

O=C([O-])[C@@H](O)[C@@H](O)[C@H](O)[C@@H](O)C(=O)[O-].[Ca+2] [CGT, calcium D-glucarate]
tumor growth compared with control group [12]: slightly slower
effect on TCDD toxicity [13]: definite anti-"TCDD toxicity" effect
